# Test results taken from US10287301B2 (Achillion Pharmaceuticals, Inc., priority 2015, dated 2019).
# Target: Human Factor D (Homo sapiens (Human), UniProt P00746)
# Test: Human Factor D Assay
# Format: biochemical
# Conditions: Table 3; Human Factor D 80 nM, substrate Z-L-Lys-SBzl; read-out: IC50 (Stars)
# Procedure, shortened: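 Factor D (from human serum) 80 nM final + cpd, 5 min RT, 50 mM Tris/1M NaCl pH 7.5; add Z-L-Lys-SBzl 100 μM and DTNB 100 μM final. IC50 by nonlinear fit of rates vs [cpd].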
# Sequence of Human Factor D (P00746 26-253): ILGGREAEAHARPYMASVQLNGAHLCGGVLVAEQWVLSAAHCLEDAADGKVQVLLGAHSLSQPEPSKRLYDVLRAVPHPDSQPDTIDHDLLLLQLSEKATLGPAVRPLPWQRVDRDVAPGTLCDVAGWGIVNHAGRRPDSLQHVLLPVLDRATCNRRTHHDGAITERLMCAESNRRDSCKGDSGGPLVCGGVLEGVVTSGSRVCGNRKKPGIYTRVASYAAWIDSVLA
row,SMILES,IC50 [nM]
1,"CC(=O)c1nn(CC(=O)N2[C@@H]3C[C@@H]3C[C@H]2C(=O)Nc2cncc(Br)n2)c2ccc(-c3cnc(NC4CC4)nc3)cc12 [Compound 380, (1R,3S,5R)-2-(2-(3-Acetyl-5-(2-(cyclopropylamino)pyrimidin-5-yl)-1H-indazol-1-yl)acetyl)-N-(6-bromopyrazin-2-yl)-2-azabicyclo[3.1.0]hexane-3-carboxamide]",< 1000
2,"CC(=O)c1nn(CC(=O)N2C[C@H](F)C[C@H]2C(=O)Nc2cc(Br)n(C)n2)c2ccc(-c3cnc(C)nc3)cc12 [Compound 381, (2S,4R)-1-(2-(3-Acetyl-5-(2-methylpyrimidin-5-yl)-1H-indazol-1-yl)acetyl)-N-(5-bromo-1-methyl-1H-pyrazol-3-yl)-4-fluoropyrrolidine-2-carboxamide]",< 1000
3,"CC(=O)c1nn(CC(=O)N2[C@H]3C[C@@]3(C)C[C@H]2C(=O)Nc2cccc(Br)n2)c2ccc(-c3cnc(C)nc3)cc12 [Compound 382, (1S,3S,5S)-2-(2-(3-Acetyl-5-(2-methylpyrimidin-5-yl)-1H-indazol-1-yl)acetyl)-N-(6-bromopyridin-2-yl)-5-methyl-2-azabicyclo[3.1.0]hexane-3-carboxamide]",< 1000
4,"CC(=O)c1nn(CC(=O)N2[C@H]3C[C@@]3(CO)C[C@H]2C(=O)Nc2cccc(Br)n2)c2ccc(-c3cnc(C)nc3)cc12 [Compound 383, (1S,3S,5R)-2-(2-(3-Acetyl-5-(2-methylpyrimidin-5-yl)-1H-indazol-1-yl)acetyl)-N-(6-bromopyridin-2-yl)-5-(hydroxymethyl)-2-azabicyclo[3.1.0]hexane-3-carboxamide]",< 1000
5,"COc1ncc(-c2ccc3c(c2)c(C(C)=O)nn3CC(=O)N2C[C@H](F)C[C@H]2C(=O)Nc2cccc(Br)n2)cn1 [Compound 384, (2S,4R)-1-(2-(3-Acetyl-5-(2-methoxypyrimidin-5-yl)-1H-indazol-1-yl)acetyl)-N-(6-bromopyridin-2-yl)-4-fluoropyrrolidine-2-carboxamide]",< 1000
6,"COc1ncc(-c2ccc3c(c2)c(C(C)=O)nn3CC(=O)N2[C@@H]3C[C@@H]3C[C@H]2C(=O)Nc2cncc(Br)n2)cn1 [Compound 385, (1R,3S,5R)-2-(2-(3-Acetyl-5-(2-methoxypyrimidin-5-yl)-1H-indazol-1-yl)acetyl)-N-(6-bromopyrazin-2-yl)-2-azabicyclo[3.1.0]hexane-3-carboxamide]",< 1000
7,"CC(=O)c1nn(CC(=O)N2C[C@H](F)C[C@H]2C(=O)Nc2cccc(Br)n2)c2cc(CN(C)C)c(-c3cnc(C)nc3)cc12 [Compound 387, (2S,4R)-1-(2-(3-Acetyl-6-((dimethylamino)methyl)-5-(2-methylpyrimidin-5-yl)-1H-indazol-1-yl)acetyl)-N-(6-bromopyridin-2-yl)-4-fluoropyrrolidine-2-carboxamide]",< 1000
8,"CCc1ncc(-c2ccc3c(c2)c(C(C)=O)nn3CC(=O)N2C[C@H](F)C[C@H]2C(=O)Nc2cncc(Br)n2)cn1 [Compound 388, (2S,4R)-1-(2-(3-Acetyl-5-(2-ethylpyrimidin-5-yl)-1H-indazol-1-yl)acetyl)-N-(6-bromopyrazin-2-yl)-4-fluoropyrrolidine-2-carboxamide]",< 1000
9,"CC(=O)c1nn(CC(=O)N2C[C@H](F)C[C@H]2C(=O)Nc2cncc(Br)n2)c2ccc(-c3cnc(C(C)C)nc3)cc12 [Compound 389, (2S,4R)-1-(2-(3-Acetyl-5-(2-isopropylpyrimidin-5-yl)-1H-indazol-1-yl)acetyl)-N-(6-bromopyrazin-2-yl)-4-fluoropyrrolidine-2-carboxamide]",< 1000
10,"CNc1ncc(-c2ccc3c(c2)c(C(C)=O)nn3CC(=O)N2C[C@H](F)C[C@H]2C(=O)Nc2cccc(Br)n2)cn1 [Compound 390, (2S,4R)-1-(2-(3-Acetyl-5-(2-(methylamino)pyrimidin-5-yl)-1H-indazol-1-yl)acetyl)-N-(6-bromopyridin-2-yl)-4-fluoropyrrolidine-2-carboxamide]",< 1000
11,"CC(=O)c1nn(CC(=O)N2C[C@H](F)C[C@H]2C(=O)Nc2cccc(Br)n2)c2ccc(-c3cnc(CC#N)nc3)cc12 [Compound 391, (2S,4R)-1-(2-(3-Acetyl-5-(2-(cyanomethyl)pyrimidin-5-yl)-1H-indazol-1-yl)acetyl)-N-(6-bromopyridin-2-yl)-4-fluoropyrrolidine-2-carboxamide]",< 1000
12,"CC(=O)c1nn(CC(=O)N2[C@H](C(=O)Nc3cccc(Br)n3)C[C@@]3(CO)C[C@@H]23)c2ccc(-c3cnc(C)nc3)cc12 [Compound 392, (1R,3S,5S)-2-(2-(3-Acetyl-5-(2-Methylpyrimidin-5-yl)-1H-indazol-1-yl)acetyl)-N-(6-bromopyridin-2-yl)-5-(hydroxymethyl)-2-azabicyclo[3.1.0]hexane-3-carboxamide]",< 1000
13,"CO[C@H]1[C@@H](C(=O)Nc2cccc(Br)n2)N(C(=O)Cn2nc(C(C)=O)c3cc(-c4cnc(C)nc4)ccc32)C[C@@H]1F [Compound 393, (2S,3S,4S)-1-(2-(3-Acetyl-5-(2-methylpyrimidin-5-yl)-1H-indazol-1-yl)acetyl)-N-(6-bromopyridin-2-yl)-4-fluoro-3-methoxypyrrolidine-2-carboxamide]",< 1000
14,"COc1ccc(NC(=O)[C@@H]2C[C@@H](F)CN2C(=O)Cn2nc(C(C)=O)c3cc(-c4cnc(C)nc4)ccc32)nc1Br [Compound 394, (2S,4R)-1-(2-(3-Acetyl-5-(2-methylpyrimidin-5-yl)-1H-indazol-1-yl)acetyl)-N-(6-bromo-5-methoxypyridin-2-yl)-4-fluoropyrrolidine-2-carboxamide]",< 1000
15,"CC(=O)c1nn(CC(=O)N2C[C@@](F)(CN)C[C@H]2C(=O)Nc2cccc(Br)n2)c2ccc(-c3cnc(C)nc3)cc12 [Compound 395, (2S,4S)-1-(2-(3-Acetyl-5-(2-methylpyrimidin-5-yl)-1H-indazol-1-yl)acetyl)-4-(aminomethyl)-N-(6-bromopyridin-2-yl)-4-fluoropyrrolidine-2-carboxamide]",< 1000
16,"COC(=O)c1cc(Cl)nc(NC(=O)[C@@H]2C[C@@H](F)CN2C(=O)Cn2nc(C(C)=O)c3cc(-c4cnc(C)nc4)ccc32)c1 [Compound 396, Methyl 2-((2S,4R)-1-(2-(3-Acetyl-5-(2-methylpyrimidin-5-yl)-1H-indazol-1-yl)acetyl)-4-fluoropyrrolidine-2-carboxamido)-6-chloroisonicotinate]",< 1000
17,"CC(=O)c1nn(CC(=O)N2C[C@H](F)C[C@H]2C(=O)Nc2ccc(F)c(Br)n2)c2ccc(-c3cnc(C)nc3)cc12 [Compound 397, (2S,4R)-1-(2-(3-Acetyl-5-(2-methylpyrimidin-5-yl)-1H-indazol-1-yl)acetyl)-N-(6-bromo-5-fluoropyridin-2-yl)-4-fluoropyrrolidine-2-carboxamide]",< 1000
18,"CC(=O)c1nn(CC(=O)N2C[C@H](F)C[C@H]2C(=O)Nc2cncc(Br)n2)c2ccc(-c3cnc(CO)nc3)cc12 [Compound 398, (2S,4R)-1-(2-(3-Acetyl-5-(2-(hydroxymethyl)pyrimidin-5-yl)-1H-indazol-1-yl)acetyl)-N-(6-bromopyrazin-2-yl)-4-fluoropyrrolidine-2-carboxamide]",< 1000
19,"CC(=O)c1nn(CC(=O)N2CC(F)(CN)C[C@H]2C(=O)Nc2cccc(Br)n2)c2ccc(-c3cnc(C)nc3)cc12 (stereo partly drawn) [Compound 399, (2S)-1-(2-(3-acetyl-5-(2-methylpyrimidin-5-yl)-1H-indazol-1-yl)acetyl)-4-(aminomethyl)-N-(6-bromopyridin-2-yl)-4-fluoropyrrolidine-2-carboxamide]",< 1000
